In patent US10570122B2, “Compounds with anti-tumoral activity” (AB Science, priority 2015, dated 2020):

Tests used:
HL60 = test: CellTiter-Blue cell-based survival/proliferation assay, HL60; conditions: Homo sapiens, HL-60, Leukemia cell line HL60, 48 h, read-out: Anti-tumoral activity (measured IC50) HL60
Outline: (§1)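 Tenfold compound dilutions (0–10 μM) were added to 1·10^4 cells/well. Plates incubated 48 h at 37 °C. CellTiter-Blue reduction (4 h, 37 °C) was read as fluorescence at 590 nm, background-corrected with a cell-free blank.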

HUT78 = test: CellTiter-Blue cell-based survival/proliferation assay, HUT78; conditions: Homo sapiens, Lymphoma cell line HUT78, 48 h, read-out: Anti-tumoral activity (measured IC50) HUT78
Method: (§2) Cell-Based Proliferation Screening of Compounds
(§3) CellTiter-Blue cell-based survival/proliferation assay (Promega G8080) was performed on tumor cell lines. A total of 1·10^4 cells/well/50 μl were seeded in a 96-wells plate. Treatment was initiated by addition of a 2× drug solution of 1/10 serial dilutions ranging from 0 to 10 μM. Cells were grown for 48 h at 37° C. and then incubated with 10 μl/well of Promega CellTiter-Bleue reagent for 4 h at 37° C. The amount of resorufin dye formed was quantified by its fluorescence emission at 590 nm using a scanning multiwell spectrophotometer (OPTIMA, BMG labtech, France). A blank well without cells was used as a background control for the spectrophotometer.

KARPAS299 = test: CellTiter-Blue cell-based survival/proliferation assay, KARPAS299; conditions: Homo sapiens, KARPAS-299, Lymphoma cell line KARPAS299, 48 h, read-out: Anti-tumoral activity (measured IC50) KARPAS299
Method: as §2, §3

REC1 = test: CellTiter-Blue cell-based survival/proliferation assay, REC1; conditions: Homo sapiens, Lymphoma cell line REC1, 48 h, read-out: Anti-tumoral activity (measured IC50) REC1
Method: as §2, §3

OPM2 = test: CellTiter-Blue cell-based survival/proliferation assay, OPM2; conditions: Homo sapiens, OPM-2, Myeloma cell line OPM2, 48 h, read-out: Anti-tumoral activity (measured IC50) OPM2
Outline: as §1

A498 = test: CellTiter-Blue cell-based survival/proliferation assay, A498; conditions: Homo sapiens; A498 kidney tumor cell line, 48 h
Outline: as §1

A549 = test: CellTiter-Blue cell-based survival/proliferation assay, A549; conditions: Homo sapiens; A549 lung tumor cell line, 48 h
Outline: as §1

ACHN = test: CellTiter-Blue cell-based survival/proliferation assay, ACHN; conditions: Homo sapiens; ACHN kidney tumor cell line, 48 h
Outline: as §1

AGS = test: CellTiter-Blue cell-based survival/proliferation assay, AGS; conditions: Homo sapiens; AGS stomach tumor cell line, 48 h
Outline: as §1

BT20 = test: CellTiter-Blue cell-based survival/proliferation assay, BT20; conditions: Homo sapiens, BT-20; BT20 breast tumor cell line, 48 h
Outline: as §1

BXPC3 = test: CellTiter-Blue cell-based survival/proliferation assay, BXPC3; conditions: Homo sapiens, BXPC-3; BXPC3 pancreas tumor cell line, 48 h
Outline: as §1

CALU6 = test: CellTiter-Blue cell-based survival/proliferation assay, CALU6; conditions: Homo sapiens, Calu-6; CALU6 lung tumor cell line, 48 h
Outline: as §1

CLS354 = test: CellTiter-Blue cell-based survival/proliferation assay, CLS354; conditions: Homo sapiens, CLS-354; CLS354_4 head & neck tumor cell line, 48 h
Outline: as §1

DLD1 = test: CellTiter-Blue cell-based survival/proliferation assay, DLD1; conditions: Homo sapiens, DLD-1; DLD_1 colorectal tumor cell line, 48 h
Outline: as §1

DU145 = test: CellTiter-Blue cell-based survival/proliferation assay, DU145; conditions: Homo sapiens, DU-145; DU145 prostate tumor cell line, 48 h
Outline: as §1

H1299 = test: CellTiter-Blue cell-based survival/proliferation assay, H1299; conditions: Homo sapiens, NCI-H1299; H1299 lung tumor cell line, 48 h
Outline: as §1

HCT116 = test: CellTiter-Blue cell-based survival/proliferation assay, HCT116; conditions: Homo sapiens, HCT-116; HCT116 colorectal tumor cell line, 48 h
Outline: as §1

HEP2 = test: CellTiter-Blue cell-based survival/proliferation assay, HEP2; conditions: Homo sapiens, HEp-2; HEP2 head & neck tumor cell line, 48 h
Outline: as §1

HEPG2 = test: CellTiter-Blue cell-based survival/proliferation assay, HEPG2; conditions: Homo sapiens; HEPG2 liver tumor cell line, 48 h
Outline: as §1

HGC27 = test: CellTiter-Blue cell-based survival/proliferation assay, HGC27; conditions: Homo sapiens, HGC-27; HGC27 stomach tumor cell line, 48 h
Outline: as §1

MDAMB231 = test: CellTiter-Blue cell-based survival/proliferation assay, MDAMB231; conditions: Homo sapiens, MDA-MB-231; MDAMB231 breast tumor cell line, 48 h
Outline: as §1

MESSA = test: CellTiter-Blue cell-based survival/proliferation assay, MESSA; conditions: Homo sapiens, MES-SA; MESSA ovary tumor cell line, 48 h
Outline: as §1

PANC1 = test: CellTiter-Blue cell-based survival/proliferation assay, PANC1; conditions: Homo sapiens, PANC-1; PANC_1 pancreas tumor cell line, 48 h
Outline: as §1

PC3 = test: CellTiter-Blue cell-based survival/proliferation assay, PC3; conditions: Homo sapiens, PC-3; PC3 prostate tumor cell line, 48 h
Outline: as §1

PLCPRF5 = test: CellTiter-Blue cell-based survival/proliferation assay, PLCPRF5; conditions: Homo sapiens, PLC-PRF-5; PLC_PRF5 liver tumor cell line, 48 h
Outline: as §1

SW579 = test: CellTiter-Blue cell-based survival/proliferation assay, SW579; conditions: Homo sapiens; SW579 head & neck tumor cell line, 48 h
Outline: as §1

TOV112D = test: CellTiter-Blue cell-based survival/proliferation assay, TOV112D; conditions: Homo sapiens; TOV112D ovary tumor cell line, 48 h
Outline: as §1

[1] = test system: panel of about 34 human tumor cell lines; test: Cell-based proliferation screening on panel of tumor cell lines; conditions: solid tumor cell line, cell line unknown, 48 h, read-out: IC50, solid tumor cell line of column 6 (last section of Table 3)
Outline: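 CellTiter-Blue survival assay with 1·10^4 cells/well, each line treated 48 h at 37° C with 1/10 serial dilutions from 0 to 10 μM. Resorufin formed during a 4 h reagent incubation is read by fluorescence at 590 nm. A cell-free blank serves as background.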

Structure (SMILES) | IC50 (HL60) [nM] | IC50 (HUT78) [nM] | IC50 (KARPAS299) [nM] | IC50 (REC1) [nM] | IC50 (OPM2) [nM] | IC50 (A498) [nM] | IC50 (A549) [nM] | IC50 (ACHN) [nM] | IC50 (AGS) [nM] | IC50 (BT20) [nM] | IC50 (BXPC3) [nM] | IC50 (CALU6) [nM] | IC50 (CLS354) [nM] | IC50 (DLD1) [nM] | IC50 (DU145) [nM] | IC50 (H1299) [nM] | IC50 (HCT116) [nM] | IC50 (HEP2) [nM] | IC50 (HEPG2) [nM] | IC50 (HGC27) [nM] | other results
CCOCc1ccc(C)c(Nc2ncc(-c3ccc(-n4cncn4)cc3)o2)c1 [Example 034, (5-Ethoxymethyl-2-methyl-phenyl)-[5-(4-[1,2,4]triazol-1-yl-phenyl)-oxazol-2-yl]-amine] | > 1000 | 100 to 500 | 100 to 500 | 100 to 500 | > 1000 | > 1000 | > 1000 | > 1000 | > 1000 | > 1000 | > 1000 | > 1000 | 500 to 1000 | > 1000 | > 1000 | > 1000 | > 1000 | 500 to 1000 | > 1000 | > 1000 | IC50 (MDAMB231): > 1000 nM; IC50 (MESSA): > 1000 nM; IC50 (PANC1): > 1000 nM; IC50 (PC3): > 1000 nM; IC50 (PLCPRF5): > 1000 nM; IC50 (SW579): > 1000 nM; IC50 (TOV112D): 500 to 1000 nM; IC50 [1]: > 1000 nM
CCOCc1ccc(C)c(Nc2ncc(-c3ccc(-n4ccnn4)cc3)o2)c1 [Example 035, (5-Ethoxymethyl-2-methyl-phenyl)-[5-(4-[1,2,3]triazol-1-yl-phenyl)-oxazol-2-yl]-amine] | > 1000 | 500 to 1000 | 500 to 1000 | 500 to 1000 | > 1000 | > 1000 | > 1000 | > 1000 | > 1000 | > 1000 | > 1000 | > 1000 | > 1000 | > 1000 | > 1000 | > 1000 | > 1000 | > 1000 | > 1000 | > 1000 | IC50 (MDAMB231): > 1000 nM; IC50 (MESSA): > 1000 nM; IC50 (PANC1): > 1000 nM; IC50 (PC3): > 1000 nM; IC50 (PLCPRF5): > 1000 nM; IC50 (SW579): > 1000 nM; IC50 (TOV112D): 500 to 1000 nM; IC50 [1]: > 1000 nM
